The test system of test [1] is wild-type iPS line. As to the kind of experiment: Feeder free 2-variable RCCD (Activin A, TGF-beta-1): self-renew (final cell growth achieved). Format: cell-based. The following applies: first feeder-free 2-variable RCCD, R^2 = 90.3%, p < 0.1; for Self-renew regression Coefficient (Linear): linear term of coded variable; for Self-renew regression Coefficient (Quadratic): quadratic term of coded variable. An excerpt: (§1) Aiming to improve the efficacy of the media, stimulating other pathways, besides the FGF-path, were explored. The Nodal/Activin pathway is related to pluripotency/self-renew (XIAO, 2006), than the factors from TGF superfamily. Activin A (Peprotech, Rocky Hill, N.J.; catalog number 120-14E) and TGF-beta-1 (Peprotech, Rocky Hill, N.J.; catalog number 100-21C), were investigated in a 2-variable RCCD (Table 20).
(§2) In these experiments, a wild-type iPS line was used. In the same fashion as the feeder conditions, cells were homogenously inoculated in several plates in each different formulation. The main difference in this step was the readout analyzed. Kinetic growth were not obtained due to the problems related to managing several feeder-free plates. Thus, instead of calculating integral and Px,max, two other readouts were used. The first one was the final cell growth achieved, called here as self-renew and the other one was percent of pluripotency, obtained from FACs analyzes by the dual staining with SSEA-4 and Nanog.
Analyzing the model, it is clear that TGF-beta-1 and Activin A have similar parameters. Additionally, they got a negative interaction with each other; meaning that, from an optimization point of view, if one is raised the other should be diminished. Taking a look into the surface gives a better clue of the best regions.

In test [2] the test system is H-9 cells. The test is described as follows: Kinetic growth of H-9 cells on feeders in PB12/RCCD media formulations (Integral, Px,max, μ) with Statistica effect/regression models. The note with it: for Effect on Integral / Effect on Px, max / Effect on μ: PB12, level −1 to +1 (ranges Table 2), least square method; for Regression coefficient (Linear), Px, max / Regression coefficient (Quadratic), Px, max / Regression coefficient (Linear), Integral: 1st RCCD, codified values; for Regression coefficient (Linear), Px, max / Regression coefficient (Quadratic), Px, max: R^2 = 80.0%; for Regression coefficient (Linear), Integral: R^2 = 86.4%. Format: cell-based, human. The arrangement: Effect on Integral / Effect on μ: unit not given here. An excerpt:
A Placket-Burman matrix of 12 independent conditions (PB12) was used (Table 1), according to the Design of Experiments (DOE) methodology for the screening of 8 factors (RODRIGUES & IEMMA, 2005). […] Since this first step, the PB12, is a screening step, whenever it was possible the concentration of the factor was set as zero. • Condition 0: represents the central condition of the DOE, being the mean value obtained from averaging the values for levels −1 and +1. In addition to the central condition, the “main” central condition is defined as a state when all factors are set to condition 0.
In total, 14 different conditions were examined: 12 related to the PB12 matrix, 1 related to the “main” central condition that was performed in quadruplicates for the error estimation and a control condition with KSR. The basal media was: a 1:1 mixture 1:1 of DMEM and Ham's F12 (DMEM/F12; Mediatech, Manassas, Va.; catalog number 10-092), 1% NEAA, 110 μM β-mercaptoethanol (BME; Sigma-Aldrich, St. Louis, Mo.; catalog number M7522), 50 μg/mL gentamicin sulfate (Mediatech, Manassas, Va.; catalog number 30-005-CR) and 8 ng/mL of FGF-2 (Peprotech, Rocky Hill, N.J.; catalog number 100-18B). FGF-2 was reconstituted in PBS at 100 ug/mL and was added to the media for a final concentration of 8 ng/mL at the start of the culture. During the culture period, additional FGF-2 (8 ng/mL) was added directly to the media on a daily basis.
Every 24 hours one well from each condition and 4 wells from the main central condition were enzymatic dissociated and counted with the help of an automatic counter (NucleoCounter NC-100), for an unbiased measure of cell growth. In that way, by the end of the 5 days, a kinetic curve was obtained for every single condition (FIG. 1). Readouts like integral of cells (integral; defined as area below the curve), maximum productivity (Px,max; defined as the highest value obtained from dividing cell number by time) or and specific global ( ) growth rate (or speed of cell growth obtained from the formula dX/dt=pX) were calculated in order to perform the statistics comparing all different curves (Table 3).
Through the estimation of the effects from the least square method and the calculation of the errors obtained by the replicates performed on the main central condition (formulation 13), “t” was calculated as the ratio of effect and error.
By comparing the calculated “t” value with “t” values from a Student's “t” distribution table for a bilateral distribution, the p-value was obtained for each parameter in every readout.
Aiming to understand better the contribution of each protein in the formulation of the media, an optimization step was performed using the Three-Variable Rotatable Central Composite Design (RCCD; Rodrigues and lemma, 2005). The concentration range of each supplement was the same as given in Table 2 for the PB12 design, with the same concentration for the level 0, −1, and +1 condition.
The basal media was: a 1:1 mixture 1:1 of DMEM and Ham's F12 (DMEM/F12; Mediatech, Manassas, Va.; catalog number 10-092), 1.5% NEAA, 8.46 mg/L citric acid, 0.89×10^−4 mM sodium selenite, 2 mM glutamine (total of 4.5 mM), BME 110 μM, gentamicin sulfate 50 μg/mL and 8 ng/mL of FGF-2.
As before, kinetics growth of H-9 cells were obtained and readouts like Integral and Px, max were calculated (Table 6).
Through the use of Statistica software (StatSoft, Tulsa, Okla.), a second order mathematical model was generated in order to evaluate the real contribution of each supplement (Table 7).

The subject of test [3] is wild-type iPS line. As to the kind of experiment: Feeder free 2-variable RCCD (Activin A, TGF-beta-1): percent of pluripotency, FACs dual staining SSEA-4 and Nanog. It counts as cell-based. The note with it: p>0.1.
Description: as §1, §2

The subject of test [4] is H-9 cells. The test is described as follows: Kinetic growth of H-9 cells on feeders in PB12/RCCD media formulations (Integral, Px,max, μ) with Statistica effect/regression models. Format: cell-based, human. The note with it: codified values.
Test [5] relates to H-9s. The note with it: extra amount of bicarbonate (2.4 g/L vs 1.2 g/L).
Description: A simple test was performed with KSR formulation, just changing basal media supplier and consequently just changing the amount of buffer.
For test [6], the system named is H-9s. As to the kind of experiment: H-9s concentration after 3 days in low protein formulation with different BME concentrations. Format: cell-based, human. The following applies: 20 μM, low protein amount formulation, p<0.01, t-test. An excerpt: FIG. 7: H-9s concentration after 3 days of culture in low protein based formulation with different BME concentrations. Error bars were generated through independent quadruplicates.
Having a meticulous comparison between all RCCDs performed, it was noticed that BME concentration was different due to supplier differences. […] Still, considering that BME is not just an antioxidant but a denaturizing chemical as well, it is expected that this compound would have a greater effect on media formulated with low amount of proteins.
Astonishingly, BME is normally added and recommended in KSR based media and feeder free media like mTeSR1 and StemPro. However, the negative effect of this compound is probably buffered by the huge amount of proteins that these media got, around 10 grams per liter, while the invention provides at least 20 times less. This discovery represents a breakthrough in terms of what are the real needs of an ES cell, drastically changing the media and cell's environment.

Where [7] appears, read: RCCD for NEAA, citric acid and glutamine, R^2 = 89.5%.
Where [8] appears, read: RCCD for NEAA, citric acid and glutamine, R^2 = 90.7%.

TGF-β-1: in the test with wild-type iPS line [1], the “Self-renew regression Coefficient (Linear)” value is recorded as −0.508 and the “Self-renew regression Coefficient (Quadratic)” value came out at 0.936.
Regarding `O=[Se]([O-])[O-].[Na+].[Na+]` [Selenite, sodium selenite], in the test with H-9 cells [2], the “Effect on Integral” value is 7.46; the “Effect on Px, max” value amounted to 0.0029; the “Effect on μ” value turned out to be 0.0098.
Consider “TGF-beta-1: TGF-beta-1 (Peprotech), factor from TGF superfamily”, for which, in the test on wild-type iPS line [3], the “statistical relevance of model parameters for pluripotency” value was “no parameters either related to Activin A or TGF-beta-1 that were statistically relevant”.
Consider “Transf.: CellPrime rTransferrin AF recombinant human transferrin (Millipore)”, for which the “Regression coefficient (Linear), Px, max” value with H-9 cells [2] is reported as 0.0107; in the test on H-9 cells [4] (2nd RCCD, R^2 = 37.9%), 0.0027; in the test on H-9 cells [4] (3rd RCCD, R^2 = 86.4%), 0.0013; in the test on H-9 cells [4] (4th RCCD, R^2 = 69.0%), 0.0021. Moreover, the “Regression coefficient (Quadratic), Px, max” value in the test with H-9 cells [2] is 0.0028; in the test with H-9 cells [4] (2nd RCCD, R^2 = 37.9%), −0.0014; with H-9 cells [4] (3rd RCCD, R^2 = 86.4%) it was 0.0018; in the test on H-9 cells [4] (4th RCCD, R^2 = 69.0%), −0.0034. The “Regression coefficient (Linear), Integral” value with H-9 cells [2] was 43.29; in the test on H-9 cells [4] (2nd RCCD, R^2 = 62.7%) it was 18.70; with H-9 cells [4] (3rd RCCD, R^2 = 65.8%), 4.61; in the test with H-9 cells [4] (4th RCCD, R^2 = […]) it was 1.17. The “Effect on Integral” value with H-9 cells [2] amounted to 65.44. In addition, the “Effect on Px, max” value in the test on H-9 cells [2] stood at 0.0189. Also, in the test with H-9 cells [2], the “Effect on μ” value was determined as 0.0169. In addition, the “Regression coefficient (Quadratic), Integral” value with H-9 cells [4] (1st RCCD, R^2 = 86.4%) is recorded as 4.06; with H-9 cells [4] (2nd RCCD, R^2 = 62.7%) it was 5.70; in the test on H-9 cells [4] (3rd RCCD, R^2 = 65.8%), 3.59; in the test with H-9 cells [4] (4th RCCD, R^2 = […]) it was −14.34.
With IGF-1, the “Regression coefficient (Linear), Px, max” value in the test on H-9 cells [2] was 0.0121; in the test with H-9 cells [4] (2nd RCCD, R^2 = 37.9%), 0.0021; in the test with H-9 cells [4] (3rd RCCD, R^2 = 86.4%) it was 0.0003; with H-9 cells [4] (4th RCCD, R^2 = 69.0%), 0.0028. Moreover, the “Regression coefficient (Quadratic), Px, max” value with H-9 cells [2] is on record as −0.0036; in the test on H-9 cells [4] (2nd RCCD, R^2 = 37.9%), −0.0011; with H-9 cells [4] (3rd RCCD, R^2 = 86.4%), 0.0041; with H-9 cells [4] (4th RCCD, R^2 = 69.0%) it was 0.0046. In addition, the “Regression coefficient (Linear), Integral” value with H-9 cells [2] was 42.99; with H-9 cells [4] (2nd RCCD, R^2 = 62.7%) it was 17.03; with H-9 cells [4] (3rd RCCD, R^2 = 65.8%), 0.24; in the test with H-9 cells [4] (4th RCCD, R^2 = […]) it was 3.10. The “Effect on Integral” value in the test on H-9 cells [2] is 97.69. The “Effect on Px, max” value with H-9 cells [2] is recorded as 0.0292. Moreover, the “Effect on μ” value in the test on H-9 cells [2] turned out to be 0.0027. For the same compound, the “Regression coefficient (Quadratic), Integral” value in the test on H-9 cells [4] (1st RCCD, R^2 = 86.4%) is on record as −1.19; with H-9 cells [4] (2nd RCCD, R^2 = 62.7%), −4.60; with H-9 cells [4] (3rd RCCD, R^2 = 65.8%), 7.12; in the test on H-9 cells [4] (4th RCCD, R^2 = […]) it was 10.30.
Consider `NC(=O)CC[C@H](N)C(=O)O` [Glut, glutamine], for which, in the test on H-9 cells [2], the “Effect on Integral” value is reported as −39.15; the “Effect on Px, max” value is −0.0088; the “Effect on μ” value is 0.0023. Further, in the test on H-9 cells [4] (setting [7]), the “Regression coefficient (Linear), Px, max” value is reported as −0.0010 and the “Regression coefficient (Quadratic), Px, max” value is listed as −0.0050. Besides, in the test with H-9 cells [4] (setting [8]), the “Regression coefficient (Linear), Integral” value is on record as 2.10 and the “Regression coefficient (Quadratic), Integral” value is listed as −10.20.
In the case of `NCCO` [Etan., ethanolamine], in the test on H-9 cells [2], the “Effect on Integral” value is −0.56; the “Effect on Px, max” value is listed as −0.0055; the “Effect on μ” value stood at 0.0006.
Regarding `O=C(O)CC(O)(CC(=O)O)C(=O)O` [Citric Acid, citric acid], in the test with H-9 cells [2], the “Effect on Integral” value came out at 17.09; the “Effect on Px, max” value turned out to be 0.0060; the “Effect on μ” value was found to be 0.0065. In the test on H-9 cells [4] (setting [7]), the “Regression coefficient (Linear), Px, max” value is recorded as −0.0020 and the “Regression coefficient (Quadratic), Px, max” value is listed as −0.0104. Also, in the test on H-9 cells [4] (setting [8]), the “Regression coefficient (Linear), Integral” value was 1.63 and the “Regression coefficient (Quadratic), Integral” value is reported as −33.83.
In the case of `O=C([O-])O.[Na+]` [bicarbonate, sodium bicarbonate], the “cell growth with KSR formulation” value with H-9s [5] is reported as “perform better”.
For the compound “Activin A: Activin A (Peprotech), factor from TGF superfamily”, in the test with wild-type iPS line [1], the “Self-renew regression Coefficient (Linear)” value is reported as −0.430 and the “Self-renew regression Coefficient (Quadratic)” value is 0.798. Further, the “statistical relevance of model parameters for pluripotency” value in the test on wild-type iPS line [3] is “no parameters either related to Activin A or TGF-beta-1 that were statistically relevant”.
For `OCCS` [BME, β-mercaptoethanol], in the test with H-9s [6], the “effect on ES cell growth” value was “statistically negative effect”.

For the origin of these results see patent US9725695B2, “Stem cell defined media for xeno-free and feeder free conditions and uses thereof” (The Regents of the University of California, priority 2010, dated 2017).
